Results published in patent US20140194517A1, “Treatment of Graft-Versus-Host Disease Disorders using RAR Antagonists” (Io Therapeutics, Inc., priority 2013, published 2014).

Test system: B10.BR recipients (acute GVHD)
Assay: Acute GVHD after allogeneic BMT: lethally irradiated B10.BR recipients given B6 BM and splenocytes
Type: in vivo, mice
Conditions: 15×10^6 splenocytes, ATRA 200 μg/mouse IP daily day 0 to 28
Protocol: FIG. 3. Heightened RA levels and RAR-α signaling exacerbates GVHD. Survival and weight curves of lethally irradiated B10.BR recipients (n=8/group) injected with 10^7 BM and 15×10^6 splenocytes from B6 mice. Subgroups were treated with vehicle (filled circles) or all trans retinoic acid (ATRA) (open circles) p=0.013.
FIG. 4. Heightened RA levels and RAR-α signaling exacerbates GVHD. Survival and weight curves of lethally irradiated B10.BR recipients (n=8/group) injected with 10^7 BM and 5×10^6 splenocytes from B6 mice. Subgroups were treated with vehicle (filled circles) or ATRA (open circles) p=0.037.
To determine whether heightened vitamin A signaling would augment acute GVHD, B10.BR recipients given BM with or without 15×10^6 splenocytes from B6 mice were given ATRA (200 μg/mouse IP) daily from day 0 to 28. […] These findings indicate heightened vitamin A levels and RAR signaling can enhance GVHD lethality.

CC1=C(/C=C/C(C)=C/C=C/C(C)=C/C(=O)O)C(C)(C)CCC1 [ATRA, all trans retinoic acid]
GVHD lethality (p=0.013 vs vehicle): significant increase | median survival time (MST) (vehicle 21.5 days): 9 days | weight loss (vs vehicle): accelerated weight loss
